The text below walks through data of PubChem BioAssay AID179 (DTP/NCI, 2004).

The source made the active and inactive calls.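 How the source made its calls: active means compounds giving half or more protection of infected cells from virus-caused growth loss, again on retest; inactive means the rest.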

The experiment deals with CEM cells HIV-1 protection, formazan growth assay. As to the kind of experiment: NCI AIDS Antiviral Assay. Conditions: for IC50: measured here: growth of uninfected CEM cells. The method, boiled down: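 Protection of CEM cells against HIV-1 was scored from cell growth (soluble formazan) across five concentrations, with parallel uninfected cells. Lack of protection may reflect toxicity.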

One may read the EC50 as the concentration at which the effect is half-maximal. One may read the IC50 as the concentration that gives 50% inhibition. The low end stands for inhibition by little substance, the high end for a need for much substance. As to `OC(C#CCN1CCCC1)(c1ccccc1)c1ccc(F)cc1.[C-]#[O+].[C-]#[O+].[C-]#[O+].[C-]#[O+].[C-]#[O+].[C-]#[O+].[Co].[Co]` (stereo not given), the EC50 was over 200 µM and the IC50 worked out at 7.41 µM.

For `C=CC(=O)NC(O)(C(=O)OCC)C(F)(F)F` (stereo not given), the EC50 was over 200 µM and the IC50 was over 200 µM.

Regarding `N#Cc1ncn(CCO)c1N`, the EC50 is over 200 µM and the IC50 is over 200 µM.

For the compound `CCN(CC)CCSc1nc2c([N+](=O)[O-])cccc2[nH]1`, the outcome was inactive.

`C/C(=N\Nc1ccc([N+](=O)[O-])cc1)C(=O)N(C)Nc1ccccc1`: the outcome was inactive.

Turning to `NCCCN(CCCCN(CCCN)Cc1ccccc1)Cc1ccccc1`, the EC50 is 64.6 µM and the IC50 was 70.8 µM.

With `CC1=NC(=O)CC2=C1C(C)N(Cc1ccccc1)C2=O` (stereo not given), the EC50 is over 355 µM and the IC50 was over 355 µM.

For `COC(=O)C(COC(C)=O)NC(=O)/C=C/c1ccc(O)c(OC(C)=O)c1` (stereo not given), the EC50 was over 200 µM and the half-maximal inhibitory concentration (IC50) is 10 µM.

Regarding `COC1CCC(CO)OO1` (stereo not given), the EC50 is over 200 µM and the IC50 turned out to be 3.09 µM.

Turning to `NC(=O)c1c[se]c(C2OC(CO)C(O)C2O)n1` (stereo not given), the outcome was inactive.

Take `CC(=O)O[C@H]1[C@@H]2CC(C)(C)CC2=C(C=O)C2(C=O)CC12C` (stereo not given in full): the EC50 is over 200 µM and the IC50 was 13.5 µM.

Regarding `N#CC(C#N)=Cc1cc(O)c(O)c(O)c1`, the EC50 is over 200 µM and the 50% inhibitory concentration (IC50) worked out at 31.6 µM.

Turning to `c1ccc2c(c1)cc1n2CCc2c-1[nH]c1ccccc21`, the EC50 was over 200 µM and the 50% inhibitory concentration (IC50) is over 200 µM.

For `COc1ccc2nc3cccc([N+](=O)[O-])c3c(NCCN(CCO)CCO)c2c1`, the EC50 was over 2 µM and the IC50 is 0.0977 µM.

For the compound `CCOC(=O)c1c(N)n(-c2ccccc2)c(=S)n(-c2ccccc2)c1=O`, the EC50 was over 178 µM and the IC50 was over 178 µM.

For `O=C1CSC(c2ccc(Cl)cc2)N1c1ccc(Oc2ccc(Cl)cc2)c(Cl)c1` (stereo not given), the EC50 was over 200 µM and the IC50 is 24 µM.

Consider `CC(C)(C)CC1=CC(=O)C(C2=CC(=O)C(CC(C)(C)C)=CC2=O)=CC1=O`, for which the EC50 was over 2 µM and the IC50 is over 2 µM.

As for `S=P1(Oc2ccccc2)NNP2(=NP(N3CC3)(N3CC3)=NP(N3CC3)(N3CC3)=N2)NN1` (stereo not given), the EC50 is over 50.1 µM and the IC50 came out at 5.13 µM.

Regarding `CC1(CO)OC(n2cc(C(=O)NC(=O)OCc3ccccc3)c(=O)[nH]c2=O)CC1O` (stereo not given), the EC50 is over 603 µM and the IC50 stood at 372 µM.

Turning to `COc1ccc(NC(=O)CCc2cc(C(C)(C)C)n[nH]2)cc1`, the EC50 was over 832 µM and the IC50 was over 832 µM.

Take `COCC1OC2(CCC[C@@H]2O)O[C@H]1COC` (stereo not given in full): the result was inactive.

As to `COc1cc(-c2nnc3n2NC=C(C(=O)O)S3)cc(OC)c1OC`, the EC50 is over 257 µM and the IC50 was over 257 µM.

Turning to `CSc1ncnc2c1ncn2CCC(=O)O`, the EC50 is over 200 µM and the IC50 was over 200 µM.

For `Cc1cccc(C(C)C)c1NC(=O)C(=O)C(C(=O)c1ccccc1F)C1OC(=O)c2ccccc21` (stereo not given), the EC50 was over 200 µM and the IC50 is 15.8 µM.

For `O=C(NCc1ccc(Cl)cc1)c1cc2sccc2nc1C(F)(F)F`, the EC50 is 93.3 µM and the IC50 was over 200 µM.

On to `C[C@@]12c3c4ccc(C=O)c3Oc3ccc(C=O)c(c31)Oc1c(C=O)ccc(c12)O4`, for which the EC50 was over 50.1 µM and the IC50 is over 50.1 µM.

With `O=C(O)[C@@H]1CCC(=O)N1C(c1ccc2c(c1)OCO2)c1ccc2c(c1)OCO2`, the EC50 is over 200 µM and the IC50 was over 200 µM.

For the compound `C[Si](C)(C)C(CCCCSc1ccccc1)(Sc1ccccc1)Sc1ccccc1`, the outcome was inactive.

Take `N#CC1=C(N2CCOCC2)CCC1`: the EC50 is over 200 µM and the half-inhibitory concentration (IC50) was over 200 µM.

For the compound `CC1=C2C3=C(C)C(=O)C(C)(C)CC[C@@]3(C)[C@]2(C)CCC(C)(C)C1=O`, the EC50 is over 75.9 µM and the IC50 is over 75.9 µM.

With `Cc1ccc(C)c(COCCOCn2ccc(N)nc2=O)c1`, the EC50 was over 200 µM and the IC50 was over 200 µM.

For the compound `CC(C)C(N)S(=O)(=O)O` (stereo not given), the EC50 is over 200 µM and the IC50 was over 200 µM.

For the compound `Fc1ccc(F)c(C2SCc3nc4ccccc4n32)c1` (stereo not given), the outcome was inactive.

Take `CC12CCC(CC1)C(C)(C)N=C(N)S2`: the EC50 was over 200 µM and the 50% inhibitory concentration (IC50) came to 56.2 µM.

Turning to `CNc1ncnc2nc(OC)[nH]c12`, the EC50 is over 105 µM and the 50% inhibitory concentration (IC50) was over 105 µM.

Turning to `COc1cc2c(cc1OC)C(CSC)Cc1cc(OC)c(OC)cc1N(C)CCC2` (stereo not given), the EC50 was over 31.6 µM and the IC50 is over 31.6 µM.

In the case of `O=C1CC2(CCC(O)(c3cccs3)C(C(=O)c3cccs3)C2)C(=O)c2ccccc2N1` (stereo not given), the EC50 was over 200 µM and the IC50 was over 200 µM.

Take `CCCCOC(=O)NC(=O)c1cc2cc(Cl)cc(Cl)c2oc1=O`: the EC50 is over 13.8 µM and the IC50 is over 13.8 µM.

Regarding `CCOC(=O)c1[nH]c2cccc3c2c1CC[C@H](NC(=O)C(F)(F)F)C3=O`, the EC50 is over 200 µM and the concentration for half-maximal inhibition (IC50) is over 200 µM.

For `CCCCn1cnc2c(SSc3ncnc4c3ncn4CCCC)ncnc21`, the EC50 was over 200 µM and the IC50 amounted to 10.7 µM.

Turning to `COc1ccc(N2CCCSC2=S)cc1`, the EC50 was over 200 µM and the IC50 was over 200 µM.

As for `CCSC1=N/C(=C/c2ccccc2O)C(=O)N1`, the EC50 was over 200 µM and the IC50 was determined as 123 µM.

On to `CC(=O)NC1C(OC(C)C(=O)NC(C)C(=O)NC(CCC(=O)NCCCNc2ccc([N+](=O)[O-])c3[nH]c4ccccc4c(=O)c23)C(N)=O)C(O)C(CO)OC1(C)OCc1ccccc1` (stereo not given), for which the EC50 is over 151 µM and the IC50 was found to be 15.8 µM.

On to `C=CCNC(=S)/N=C/C(C(=O)Nc1ccccc1)=C(/C)O`, for which the EC50 is over 200 µM and the IC50 was over 200 µM.

As for `CCCCCCCCCCCCCCCC(=O)Nc1ccn(C2CC(OP(=O)(O)OCC3OC(n4cc(C)c(=O)[nH]c4=O)CC3N=[N+]=[N-])C(CO)O2)c(=O)n1` (stereo not given), the EC50 is 0.813 µM and the IC50 was over 100 µM.

On to `Cc1ccc(Nc2nc(N)nc(N)c2N=O)cc1C`, for which the EC50 is over 200 µM and the IC50 was over 200 µM.

Consider `COC(=O)/C=C1\C(CO[Si](C)(C)C(C)(C)C)OC(n2cc(C)c(=O)[nH]c2=O)C1O[Si](C)(C)C(C)(C)C` (stereo not given), for which the EC50 was over 200 µM and the IC50 is 7.08 µM.

Take `CCCCCC=C1c2ccccc2C=Cc2ccccc21`: the EC50 was over 200 µM and the IC50 came out at 72.4 µM.

Regarding `CC(=O)N(C)c1ccc(N=CN(C)C)cc1`, the EC50 was over 200 µM and the IC50 is over 200 µM.

With `NC(=O)NC1=NCCC(=O)N1CCc1c[nH]c2ccccc12`, the EC50 is over 200 µM and the IC50 came to 12.3 µM.

For the compound `COc1ccc(NC(=O)c2cc3cc(N=Nc4ccc(Br)cc4)ccc3oc2=O)cc1`, the outcome was inactive.

As to `Clc1cccc(Cl)c1C1SCc2nc3ccccc3n21` (stereo not given), the EC50 is 0.224 µM and the half-maximal inhibitory concentration (IC50) worked out at 21.9 µM.

For `Cc1ccc(-n2nncc2[Si](C)(C)C)s1`, the EC50 was over 200 µM and the IC50 is 148 µM.

For `O=S(=O)(O)SC/C=C\CSS(=O)(=O)O`, the result was inactive.
